From PMC10447463, “Data-mining unveils structure–property–activity correlation of viral infectivity enhancing self-assembling peptides” (Nature Communications, 2023)
Where “and” joins values, the source holds several entries; their conditions need not be identical. Equal values may be shown once. Read-outs that look alike come from different tables or passages of the source.

How the values were obtained:
[1] = Conversion rate (CR) assay with fluorescamine; format: physicochemical
In short: (§1)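 Conversion rate: fluorescamine fluorescence (ex 365/em 470 nm, 20 min RT) of 3 kDa filtrate versus unfiltered PNF, CR = 100 − 100 × filtrate/original intensity, triplicates. β-sheet content came from ATR FT-IR of lyophilized 1 mg/mL PNF powder, 64 scans.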

[2] = ref sieste 2021 or Schilling2019, cited from earlier work
Source text: Supplement 41467_2023_40663_MOESM7_ESM.zip/FigS17.csv, table | column: Conversion Rate / % ( from sieste 2021 or Schilling2019)

[3] = β-sheet content by ATR-FT-IR; format: physicochemical
In short: as §1

TZM-bl cells = format: cell-based; conditions: CellTiter-Glo, mean of n = 3 replicates; for viability 0.26 µM: peptide 0.26 µM; for viability 1.3 µM: peptide 1.3 µM; for viability 6.5 µM: peptide 6.5 µM
In short: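 Viability of TZM-bl cells (10,000 seeded) after 3 days with serially diluted peptides, measured by CellTiter-Glo luminescence. Values normalized to 100% metabolic activity; triplicates.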

[4] = previously reported peptides only

Substance	Conversion Rate / % [1]	Conversion Rate / % ([1]; fluorescamine assay)	Conversion Rate / % ( from sieste 2021 or Schilling2019) [2]	FTIR ß-sheet content/ % [3]	FTIR ß-sheet content/ % ([3]; ATR-FT-IR)	viability 0.26 µM (TZM-bl cells)	viability 1.3 µM (TZM-bl cells)	viability 6.5 µM (TZM-bl cells)	Conversion Rate / % ( from sieste 2021 or Schilling2019) ([2]; literature value)	Conversion Rate / % ( from sieste 2021 or Schilling2019) [2, 4]
CKFKFQFNMWQ [BL2]	99.03%	99.03%	96%	47.05%	47% and 47.05%	106	95.99	75.41	–	–
CEIEIQINMWQ [TM143]	59.9%	59.9%	74%	49.9%	49.9%	119.4	116.4	95.82	–	–
CKFKFQF [BL4]	96.11%	96.11%	95%	47.43%	47% and 47.43%	97.07	99.36	84.09	–	–
CSISIQI [TM141]	–	76.63%	82%	–	58.57%	98.15	96.88	81.12	–	–
KFKFQFNMWQ [JG4]	98.32%	98.32%	94%	43.15%	43% and 43.15%	119.1	111.9	101.1	94%	–
MKFKFQF [DF5 / CK16]	–	98.72%	75%	–	21.97%	101.4	111.3	99.71	–	–
KAKAQANMWQ [JG3]	47.47%	47.47%	65%	42.81%	43% and 42.81%	106.8	106.3	103.1	–	–
CKIKQIINM [BL1]	–	–	–	46%	46%	107.4	104.1	87.1	–	45%
CKIKIQI [MG3b]	–	–	54%	53%	53%	107.8	105.2	91.32	–	–
CKIKIQINMWQ [MG1]	91.29%	91.29%	87%	44.89%	45% and 44.89%	–	–	–	–	–
KFKFQF [JJA6]	51.79%	51.79%	83%	46%	46%	101.2	100.3	102.1	–	–
KIKIQI [JJA4]	32.82%	32.82%	5%	38.6%	39% and 38.6%	–	–	–	–	–
KIKIQINM [JGB2]	–	–	64%	41%	41%	119.1	112	103.3	–	–
KIKIQINMWQ [JG1]	95.68%	95.68%	93%	42.41%	42% and 42.41%	–	–	–	–	–
CKIKIQINM [MG2]	79%	79%	72%	42.84%	43% and 42.84%	–	–	–	–	–
CKIKQIINMWQ [MG5a / CK17]	–	–	–	51%	51%	108.4	105.1	87.21	–	50%
KIKQIINMWQ [JG2]	94.17%	94.17%	–	40.68%	41% and 40.68%	91.29	92.88	83.88	–	86%
